# ± gives the expanded uncertainty stated by the source.
# Assay: mn = molality of the nth substance listed, in mol/kg
# Settings: 101.3 kPa, Liquid; for viscosity: Capillary tube (Ostwald / Ubbelohde) method; for mass density: Vibrating tube method
structure (smiles),measurement,setting,value
OC[C@@H](O)[C@H](O)[C@@H](O)CO [xylitol] + O,viscosity,"293.15 K, m1 = 0.2",1.079 ± 0.013 mPa·s
same,viscosity,"293.15 K, m1 = 0.4",1.161 ± 0.014 mPa·s
same,viscosity,"293.15 K, m1 = 0.6",1.25 ± 0.016 mPa·s
same,viscosity,"293.15 K, m1 = 0.8",1.348 ± 0.018 mPa·s
same,viscosity,"293.15 K, m1 = 1",1.443 ± 0.019 mPa·s
same,mass density,"293.15 K, m1 = 0.2",1008.15 ± 0.28 kg/m3
same,mass density,"293.15 K, m1 = 0.4",1017.64 ± 0.42 kg/m3
same,mass density,"293.15 K, m1 = 0.6",1026.71 ± 0.57 kg/m3
same,mass density,"293.15 K, m1 = 0.8",1035.41 ± 0.71 kg/m3
same,mass density,"293.15 K, m1 = 1",1043.78 ± 0.86 kg/m3
same,viscosity,"303.15 K, m1 = 0.2",0.855 ± 0.01 mPa·s
same,viscosity,"303.15 K, m1 = 0.4",0.916 ± 0.011 mPa·s
same,viscosity,"303.15 K, m1 = 0.6",0.981 ± 0.012 mPa·s
same,viscosity,"303.15 K, m1 = 0.8",1.059 ± 0.014 mPa·s
same,viscosity,"303.15 K, m1 = 1",1.128 ± 0.017 mPa·s
same,mass density,"303.15 K, m1 = 0.2",1005.42 ± 0.28 kg/m3
same,mass density,"303.15 K, m1 = 0.4",1014.74 ± 0.42 kg/m3
same,mass density,"303.15 K, m1 = 0.6",1023.67 ± 0.56 kg/m3
same,mass density,"303.15 K, m1 = 0.8",1032.22 ± 0.7 kg/m3
same,mass density,"303.15 K, m1 = 1",1040.41 ± 0.82 kg/m3
same,viscosity,"313.15 K, m1 = 0.2",0.697 ± 0.008 mPa·s
same,viscosity,"313.15 K, m1 = 0.4",0.744 ± 0.009 mPa·s
same,viscosity,"313.15 K, m1 = 0.6",0.794 ± 0.01 mPa·s
same,viscosity,"313.15 K, m1 = 0.8",0.851 ± 0.011 mPa·s
same,viscosity,"313.15 K, m1 = 1",0.904 ± 0.013 mPa·s
same,mass density,"313.15 K, m1 = 0.2",1001.85 ± 0.28 kg/m3
same,mass density,"313.15 K, m1 = 0.4",1011.07 ± 0.41 kg/m3
same,mass density,"313.15 K, m1 = 0.6",1019.85 ± 0.56 kg/m3
same,mass density,"313.15 K, m1 = 0.8",1028.28 ± 0.69 kg/m3
same,mass density,"313.15 K, m1 = 1",1036.38 ± 0.81 kg/m3
same,viscosity,"323.15 K, m1 = 0.2",0.582 ± 0.007 mPa·s
same,viscosity,"323.15 K, m1 = 0.4",0.617 ± 0.008 mPa·s
same,viscosity,"323.15 K, m1 = 0.6",0.657 ± 0.008 mPa·s
same,viscosity,"323.15 K, m1 = 0.8",0.701 ± 0.009 mPa·s
same,viscosity,"323.15 K, m1 = 1",0.741 ± 0.01 mPa·s
same,mass density,"323.15 K, m1 = 0.2",997.56 ± 0.27 kg/m3
same,mass density,"323.15 K, m1 = 0.4",1006.6 ± 0.41 kg/m3
same,mass density,"323.15 K, m1 = 0.6",1015.35 ± 0.55 kg/m3
same,mass density,"323.15 K, m1 = 0.8",1023.7 ± 0.68 kg/m3
same,mass density,"323.15 K, m1 = 1",1031.65 ± 0.82 kg/m3
